# Laboratory results from patent US11559527B2 (priority 2017, dated 2023).
# Tests used:
# TGFβ signaling = experiment: Luciferase reporter assay MCF7-GFP-SMAD(luc); type: cell-based, Human; conditions: 50 μM, 2 and 5 days
# Description: Mitochondrial fusion and fission may also have an impact in signaling pathways that regulate stem cell proliferation and survival. […] A range of reporter MCF7-GFP cell lines were generated, including MCF7-GFP-GLI(luc), MCF7-GFP-Rbp/Jk(luc), MCF7-GFP-SMAD(luc) and MCF7-GFP-TCF/LEF(luc), to assess Hedgehog signaling, Notch signaling, TGFβ signaling, and Wnt signaling, respectively. […] The data is shown in the four data plots in FIG. 9.
# LUCIFERASE ASSAY: The Cignal Lenti reporter assay (luc) was used to monitor the activity of several signalling pathways in MCF7-GFP cells as explained previously. Luciferase Assay System (E1501, Promega) was performed according to manufacturer's instructions. 1×10^4 MCF7 […] were seeded in black-walled 96 well plates. When cells were attached, drug treatments were added for 18, 48 hours and 5 days. After treatment, Luciferase Assay was performed according to manufacturer's instructions and light signal was acquired in the Xenogen VivoVision IVIS Lumina. Results were normalized by SRB staining of cells grown in 96-well plates in parallel.
# SULFORHODAMINE B (SRB) ASSAY: SRB (S9012, Sigma) measures total biomass by staining cellular proteins. […] Absorbance was spectrophotometrically measured at 562 nm in a FluoStar Omega plate reader (BMG Labtech). […]
# A549 lung cancer cells = experiment: Tumorsphere formation assay, A549; type: cell-based
# Procedure: One of the gold standard techniques for the study and identification of CSCs is the sphere formation assay, an in vitro culture system that enriches for CSCs. Under these anchorage-independent culture conditions, CSCs preferentially form the so-called tumorspheres, whereas more differentiated cells die rapidly.
# TUMORSPHERE FORMATION ASSAY: A single cell suspension was prepared using enzymatic (1× Trypsin-EDTA, T3924, Sigma Aldrich), and manual disaggregation (25 gauge needle). […] After 5 days of culture in a humidified incubator at 37° C., tumorspheres bigger than 50 μm were counted using an eye piece graticule.
# MCF7 cells = experiment: DAPI staining (viable cells in suspension; binucleated cells); type: cell-based, Human
# Procedure: The second chart in FIG. 10B sets forth the results. […] One possible explanation to that observed behavior is that they are becoming more quiescent. […] Such phenomenon is typical of anti-mitotic drugs.
# The surviving fraction after 2 days and 5 days of growth was analyzed by FACS. MCF7 cells were either trypsinised or spun down and trypsinised and incubated with CD24 (IOTest CD24-PE, Beckman Coulter) and CD44 (APC mouse anti-human CD44, 559942, BD Pharmingen) for 15 minutes on ice. Cells were then rinsed twice in PBS, spun down, and resuspended with DAPI dye (D1306, Molecular probes) at 3 μM in PBS for 10 minutes. Samples were then analyzed by FACS (Fortessa, BD Bioscence). Only the live cell population, identified using the DAPI staining, was analyzed for CD24/CD44 expression. Data were analyzed using FlowJo software.
# E-cadherin = experiment: Western blotting (immunoblot); type: cell-based, Human; conditions: MCF7 cells after mDIVI-1 treatment
# Procedure: Breast cancer stem cells can exist in distinct states, an mesenchymal-like state and an epithelial-like state, being the first one characterized for its expression of CD24^−/CD44^+, with an mesenchymal-like gene-expression profile and primarily quiescent.
# At the end of the treatment, cells in suspension were spun down and lysed and attached cells were directly lysed in RIPA lysis buffer (R0278, Sigma) containing proteinase inhibitors (05 892 970 001, Roche) and kept at 4° C. for 20 minutes with rotation. Lysates were cleared by centrifugation for 10 minutes at 10,000×g and supernatants were collected. Equal amounts of protein lysate, as determined by using the BCA protein assay kit (23225, Pierce) were diluted in SDS sample buffer and dry-boiled for 5 minutes before being separated by SDS-PAGE using 4-20% gels (456-1094, Biorad). Samples were then blotted onto nitrocellulose membranes (170-4159, Biorad), blocked in 5% milk in TBS-Tween 20 (P9416, Sigma) for 1 hour and probed with antibodies against E-cadherin (ab8995, Abcam) or β-actin (a2228, Sigma). Bound antibodies were detected using a horseradish peroxidase-conjugated secondary antibody (ab6789 and ab6721, Abcam) and signal was obtained using Supersignal West Pico chemiluminiscent substrate (34087, ThermoScientific). Pictures were taken in a ChemiDoc XRS with Image Lab Software (BioRad).
compound,measurement,setting,value
"COc1cc(-n2c(S)nc3ccccc3c2=O)c(Cl)cc1Cl [mDIVI-1, 3-(2,4-Dichloro-5-methoxyphenyl)-2-sulfanyl-4(3H)-quinazolinone]",TGFβ/SMAD pathway luciferase activity,TGFβ signaling,inhibition
same,decrease of tumorsphere forming capacity,"A549 lung cancer cells; A549, 10 μM",> 15%
same,decrease of tumorsphere forming capacity,"A549 lung cancer cells; A549, 50 μM",> 80%
same,binucleated cells (failure of cytokinesis),"MCF7 cells; 50 μM, data not shown",increase
same,cell viability (DAPI) vs vehicle-treated cells,MCF7 cells; anchorage-independent conditions,no significant differences
same,expression of E-cadherin,E-cadherin,reduction
